Literature values, collected in patent publication US6479541B1, “Amiodarone-containing parenteral administration” (Baxter International, priority 2000, dated 2002).

Details: dogs, intravenous; literature Gough et al. 1982

For polysorbate 80 [Tween 80], the cardiodepression / hypotension is given as “associated with cardiodepression, causing hypotension”.
